Measured values taken from US20110177155A1, “METHODS OF DELIVERY OF AGENTS TO LEUKOCYTES AND ENDOTHELIAL CELLS” (IMMUNE DISEASE INSTITUTE, INC., priority 2007, published 2011).

Experiments:
[1] = test system: siRNA-mediated mRNA degradation; settings: cited from earlier work
[2] = test system: INF-β, OAS1 and STAT1; assay: Interferon assay (quantitative RT-PCR of IFN-responsive genes in splenocytes); type: cell-based, mouse
Experimental: Spleenocytes (1×10^6 cells/ml) were mock treated or treated with β7 It-sNP and luciferase-siRNA (1000 pmol) or 5 μg/ml poly (I:C). After 48 h RNA was isolated and analyzed by quantitative RT-PCR for induction of IFN or interferon responsive genes as described below.
Total RNA (1 μg) isolated using RNeasy RNA isolation kit (Qiagen) or for tissues, RNAlater RNA stabilization reagent was used followed by RNeasy fibrous tissue mini kit (Qiagen) and reverse transcribed using Superscript III (Invitrogen) and random hexamers, according to the manufacturer's protocol. […] SYBR green (Molecular Probes) was used to detect PCR products. All reactions were done in a 25 μl reaction volume in triplicate. Primers for mouse GAPDH, STAT1, OAS1 and INF β were previously described (Song et al., 2005). The following primer pairs have been used: IL-12p40: Forward: 5′-[…]-3′ (SEQ ID NO:9); Reverse: 5′-[…]-3′ (SEQ ID NO:10); TNF α: Forward 5′-[…]-3′ (SEQ ID NO:11), Reverse 5′-[…]-3′ (SEQ ID NO:12); Cyclin D1: Forward 5′-CTTCCTCTCCAAAATGCCAG-3′ (SEQ ID NO:13), Reverse 5′-AGAGATGGAAGGGGGAAAGA-3′ (SEQ ID NO:14). PCR parameters consisted of 5 min of Taq activation at 95° C., followed by 40 cycles of PCR at 95° C.×20 sec, 60° C.×30 sec, and 69° C.×20 sec. Standard curves were generated and the relative amount of target gene mRNA was normalized to GAPDH mRNA. […]

| induction of interferon-responsive genes (IRG: INF-β, OAS1, STAT1 mRNA) [2] | Compound | enhancement of siRNA-mediated mRNA degradation ([1]; with siRNA) | effect in mRNA degradation by itself ([1]; without siRNA) |
| --- | --- | --- | --- |
| – | CCn1cc(C(=O)O)c(=O)c2cc(F)c(N3CCNCC3)nc21 [Enoxacin] | enhances siRNA-mediated degradation | essentially no effect |
| induced | poly (I:C) | – | – |
